Measured values published in patent US12581252B2, “Substituted pyrrolo[3,4-b]pyridines as PI3K-α inhibitors” (Relay Therapeutics, Inc., priority 2020, dated 2026).

Key:
cells = details: Homo sapiens, MCF-10A, read-out: MCF10A IC50
H1047R PIK3CA enzyme = H1047R PIK3CA enzyme (Homo sapiens, UniProt P42336, H1047R); test: ADP-Glo Biochemical PIK3CA Kinase Assay
Sequence of H1047R PIK3CA enzyme (P42336 whole entry H1047R): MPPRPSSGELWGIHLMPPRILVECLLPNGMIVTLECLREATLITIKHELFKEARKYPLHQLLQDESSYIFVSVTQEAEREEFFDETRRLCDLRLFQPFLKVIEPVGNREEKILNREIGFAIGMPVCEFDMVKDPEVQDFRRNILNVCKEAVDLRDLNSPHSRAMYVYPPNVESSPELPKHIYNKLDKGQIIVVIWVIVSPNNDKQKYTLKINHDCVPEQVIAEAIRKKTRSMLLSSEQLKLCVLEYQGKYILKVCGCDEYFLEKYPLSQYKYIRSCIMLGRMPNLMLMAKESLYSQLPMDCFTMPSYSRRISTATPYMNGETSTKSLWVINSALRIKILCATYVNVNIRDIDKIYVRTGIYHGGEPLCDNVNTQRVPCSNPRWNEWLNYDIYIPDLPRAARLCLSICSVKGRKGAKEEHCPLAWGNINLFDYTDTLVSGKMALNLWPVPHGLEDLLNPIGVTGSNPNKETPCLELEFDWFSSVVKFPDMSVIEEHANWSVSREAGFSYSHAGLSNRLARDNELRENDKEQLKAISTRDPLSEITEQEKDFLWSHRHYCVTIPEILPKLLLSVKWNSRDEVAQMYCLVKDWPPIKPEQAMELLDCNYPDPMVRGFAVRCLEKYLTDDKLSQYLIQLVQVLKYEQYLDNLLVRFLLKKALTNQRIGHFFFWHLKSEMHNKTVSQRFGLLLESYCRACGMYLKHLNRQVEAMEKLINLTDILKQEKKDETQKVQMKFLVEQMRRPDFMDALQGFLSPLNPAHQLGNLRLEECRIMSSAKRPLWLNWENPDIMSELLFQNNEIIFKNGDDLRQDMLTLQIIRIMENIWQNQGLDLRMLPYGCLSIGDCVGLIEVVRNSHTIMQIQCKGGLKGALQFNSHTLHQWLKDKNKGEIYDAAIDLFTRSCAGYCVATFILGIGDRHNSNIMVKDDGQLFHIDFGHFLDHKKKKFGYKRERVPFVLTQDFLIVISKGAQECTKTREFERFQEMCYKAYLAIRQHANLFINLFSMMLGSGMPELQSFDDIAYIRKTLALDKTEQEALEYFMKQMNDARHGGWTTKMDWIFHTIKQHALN
Sequence of H1047R PIK3CA enzyme (P27986 whole entry partner): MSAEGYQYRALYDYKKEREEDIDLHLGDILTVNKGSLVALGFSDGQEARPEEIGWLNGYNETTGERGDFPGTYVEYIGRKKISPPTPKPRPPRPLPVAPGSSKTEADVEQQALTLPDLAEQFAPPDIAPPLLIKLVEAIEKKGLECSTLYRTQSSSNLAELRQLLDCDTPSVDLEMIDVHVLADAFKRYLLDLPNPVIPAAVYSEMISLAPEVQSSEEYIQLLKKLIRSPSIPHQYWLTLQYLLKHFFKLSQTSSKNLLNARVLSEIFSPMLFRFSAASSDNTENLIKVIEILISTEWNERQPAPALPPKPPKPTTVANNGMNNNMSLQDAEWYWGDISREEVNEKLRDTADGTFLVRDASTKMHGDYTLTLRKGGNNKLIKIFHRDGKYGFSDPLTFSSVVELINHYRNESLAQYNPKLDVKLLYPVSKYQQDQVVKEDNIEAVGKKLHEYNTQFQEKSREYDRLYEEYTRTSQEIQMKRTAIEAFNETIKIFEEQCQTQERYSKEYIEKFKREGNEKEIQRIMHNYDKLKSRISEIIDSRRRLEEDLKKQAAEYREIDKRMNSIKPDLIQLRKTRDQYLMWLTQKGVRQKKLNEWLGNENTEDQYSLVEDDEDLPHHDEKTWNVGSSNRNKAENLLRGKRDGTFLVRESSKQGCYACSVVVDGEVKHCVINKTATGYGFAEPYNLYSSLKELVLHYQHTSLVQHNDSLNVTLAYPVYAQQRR

SMILES | IC50 (cells) | IC50 (H1047R PIK3CA enzyme)
N#CCc1cc(NC(=O)c2cc(F)cc(C(F)(F)F)c2)c2c(c1)C(=O)N[C@H]2c1cc(F)ccc1Cl (racemic) [Compound I-1088] | < 1000 nM | ≤ 100 nM
O=C1NC(c2cc(F)ccc2Cl)c2c(NC(=O)C34CC5CC(C3)CC(C(F)(F)F)(C5)C4)cccc21 (centres unmarked) [Compound I-1073] | < 1000 nM | ≤ 100 nM
Cn1ncnc1Nc1cc(NC(=O)c2cc(F)cc(C(F)(F)F)c2)c2c(c1)C(=O)NC2c1cc(F)ccc1Cl (centres unmarked) [Compound I-974] | < 1000 nM | ≤ 100 nM
O=C(Nc1cc(-c2cn3ncnc3cn2)cc2c1C(c1cc(F)ccc1C(F)F)NC2=O)c1cc(F)cc(C(F)(F)F)c1 (centres unmarked) [Compound I-2185] | < 1000 nM | ≤ 100 nM
Cc1nocc1Nc1cc(NC(=O)c2cc(F)cc(C(F)(F)F)c2)c2c(c1)C(=O)NC2c1cc(F)ccc1Cl (centres unmarked) [Compound I-856] | < 1000 nM | ≤ 100 nM
O=C(Nc1cc(NC2=N[C@@H](C(F)(F)F)CO2)cc2c1[C@H](c1cc(F)ccc1Cl)NC2=O)c1cc(F)cc(C(F)(F)F)c1 (single isomer, unassigned) [Compound I-2388] | 1000 to 5000 nM | ≤ 100 nM
O=C1N[C@@H](c2cc(F)ccc2Cl)c2c(NC(=O)N3C[C@@H](O)c4ccccc43)cc(Br)cc21 (single isomer, unassigned) [Compound I-1514] | 1000 to 5000 nM | ≤ 100 nM
N#CN1CC(c2cc(NC(=O)c3cc(F)cc(C(F)(F)F)c3)c3c(c2)C(=O)NC3c2cc(F)ccc2Cl)C1 (centres unmarked) [Compound I-1157] | 5000 to 10000 nM | ≤ 100 nM
N#CC1(COc2cc(NC(=O)N3C[C@@H](O)c4cc(F)ccc43)c3c(c2)C(=O)N[C@@H]3c2cc(F)ccc2Cl)CC1 (single isomer, unassigned) [Compound I-2552] | 1000 to 5000 nM | ≤ 100 nM
O=C1N[C@H](c2cc(F)ccc2Cl)c2c(NC(=O)N3C[C@@](O)(C(F)(F)F)c4cc(F)ccc43)cc(-n3nccn3)cc21 (single isomer, unassigned) [Compound I-2569] | < 1000 nM | ≤ 100 nM
O=C1N[C@@H](c2cc(F)ccc2Cl)c2c(NC(=O)N3C[C@](O)(C(F)(F)F)c4cc(F)ccc43)ccc(-n3cccn3)c21 (single isomer, unassigned) [Compound I-2497] | < 1000 nM | ≤ 100 nM
O=C1NC(c2cc(F)ccc2Cl)c2c(NC(=O)N3CC(O)(C(F)(F)F)c4cc(F)ccc43)cccc21 (centres unmarked) [Compound I-2474] | 1000 to 5000 nM | ≤ 100 nM
O=C(Nc1cc(-n2cc(F)cn2)cc2c1C(c1cc(F)ccc1Cl)NC2=O)c1cc(F)cc(C(F)(F)F)c1 (centres unmarked) [Compound I-1146] | < 1000 nM | ≤ 100 nM
O=C(Nc1cc(-c2cncs2)cc2c1C(c1cc(F)ccc1Cl)NC2=O)c1cc(F)cc(C(F)(F)F)c1 (centres unmarked) [Compound I-1065] | < 1000 nM | ≤ 100 nM
Cc1cc2ncc(-c3cc(NC(=O)c4cc(F)cc(C(F)(F)F)c4)c4c(c3)C(=O)NC4c3cc(F)ccc3Cl)cn2n1 (centres unmarked) [Compound I-1032] | < 1000 nM | ≤ 100 nM
O=C1N[C@H](c2cc(F)ccc2Cl)c2c(NC(=O)N3C[C@](O)(C(F)(F)F)c4cc(F)ccc43)cc(C(F)F)cc21 (single isomer, unassigned) [Compound I-2579] | < 1000 nM | ≤ 100 nM
N#CC1(CNc2cc(NC(=O)c3cc(F)cc(C(F)(F)F)c3)c3c(c2)C(=O)N[C@H]3c2cc(F)ccc2Cl)CC1 [Compound I-868] | < 1000 nM | ≤ 100 nM

SMILES | IC50 (cells) | IC50 (H1047R PIK3CA enzyme)
CNC(=O)c1cc(NC(=O)c2nsc3ccccc23)c2c(c1)C(=O)N[C@@H]2c1ccccc1C [Compound I-164] | 10000 to 36000 nM | 1000 to 10000 nM
O=C1N[C@@H](c2cc(F)ccc2Cl)c2c(NC(=O)N3C[C@@H](O)c4cc(F)ccc43)cccc21 (single isomer, unassigned) [Compound I-2127] | < 1000 nM | ≤ 100 nM
N#CCc1cc(NC(=O)N2CC(O)(C(F)(F)F)c3cc(F)ccc32)c2c(c1)C(=O)NC2c1cc(F)ccc1Cl (mixture of isomers) [Compound I-2596] | < 1000 nM | ≤ 100 nM
O=C(Nc1cc(-c2cc3ccccc3[nH]2)cc2c1C(c1cc(F)ccc1Cl)NC2=O)c1cc(F)cc(C(F)(F)F)c1 (centres unmarked) [Compound I-971] | < 1000 nM | ≤ 100 nM
O=C(Nc1cc(-c2cscn2)cc2c1C(c1cc(F)ccc1Cl)NC2=O)c1cc(F)cc(C(F)(F)F)c1 (centres unmarked) [Compound I-920] | < 1000 nM | ≤ 100 nM
O=C(Nc1cc(-c2ccc[nH]c2=O)cc2c1C(c1cc(F)ccc1Cl)NC2=O)c1cc(F)cc(C(F)(F)F)c1 (centres unmarked) [Compound I-916] | < 1000 nM | ≤ 100 nM
O=C1N[C@@H](c2cc(F)ccc2Cl)c2c(NC(=O)N3C[C@H](O)c4cc(F)ccc43)cc(-n3cccn3)cc21 (single isomer, unassigned) [Compound I-2364] | 1000 to 5000 nM | ≤ 100 nM
O=C(Nc1cc(Nc2nnco2)cc2c1C(c1cc(F)ccc1Cl)NC2=O)c1cc(F)cc(C(F)(F)F)c1 (centres unmarked) [Compound I-1099] | < 1000 nM | ≤ 100 nM
O=C1N[C@H](c2cc(F)ccc2Cl)c2c(NC(=O)N3C[C@H](O)c4cc(F)ccc43)cc(-n3ccnn3)cc21 (single isomer, unassigned) [Compound I-2369] | 1000 to 5000 nM | ≤ 100 nM
CNc1cc(NC(=O)c2csc3ccccc23)c2c(c1)C(=O)NC2c1ccccc1C (centres unmarked) [Compound I-39] | 1000 to 5000 nM | ≤ 100 nM
O=C(Nc1cc(-c2cnc3ncnn3c2)cc2c1C(c1cc(F)ccc1Cl)NC2=O)c1cc(F)cc(C(F)(F)F)c1 (centres unmarked) [Compound I-969] | < 1000 nM | ≤ 100 nM
O=C(Nc1cc(-c2cnn3cccnc23)cc2c1C(c1cc(F)ccc1Cl)NC2=O)c1cc(F)cc(C(F)(F)F)c1 (centres unmarked) [Compound I-1046] | < 1000 nM | ≤ 100 nM
O=C(Nc1cc(-c2cnc(N3CCOCC3)nc2)cc2c1C(c1cc(F)ccc1Cl)NC2=O)c1cc(F)cc(C(F)(F)F)c1 (centres unmarked) [Compound I-930] | 1000 to 5000 nM | ≤ 100 nM
Cc1ccccc1C1NC(=O)c2cc(N)cc(NC(=O)c3nsc4ccccc34)c21 (centres unmarked) [Compound I-50, N-[6-Amino-3-(2-methylphenyl)-1-oxo-2,3-dihydro-1H-isoindol-4-yl]-1,2-benzothiazole-3-carboxamide] | < 1000 nM | ≤ 100 nM
O=C(Nc1cc(-c2cccc3nccn23)cc2c1C(c1cc(F)ccc1Cl)NC2=O)c1cc(F)cc(C(F)(F)F)c1 (centres unmarked) [Compound I-1013] | < 1000 nM | ≤ 100 nM
N#Cc1cc(NC(=O)N2C[C@](O)(C(F)(F)F)c3cc(F)ccc32)c2c(c1)C(=O)N[C@@H]2c1cc(F)ccc1Cl (single isomer, unassigned) [Compound I-2562] | < 1000 nM | ≤ 100 nM
O=C(Nc1cc(-c2ccnn2CC2CC2)cc2c1C(c1cc(F)ccc1Cl)NC2=O)c1cc(F)cc(C(F)(F)F)c1 (centres unmarked) [Compound I-1038] | < 1000 nM | ≤ 100 nM
